# In ChEMBL document CHEMBL1127150, “Enantioselective synthesis and antielastase activity of 1,3,4-trisubstituted and 3,4-disubstituted -lactam antibiotics” (Bioorg Med Chem Lett, 1993):
# The source made the active and inactive calls. The calls are words filed in the database; no cut-off is given here.
# What was measured:
# Neutrophil elastase = biological target: T1, Neutrophil elastase (Homo sapiens, UniProt P08246); assay: The compound was evaluated in vitro for the inhibition of human leukocyte elastase(HLE)
# T1 sequence (P08246 whole entry): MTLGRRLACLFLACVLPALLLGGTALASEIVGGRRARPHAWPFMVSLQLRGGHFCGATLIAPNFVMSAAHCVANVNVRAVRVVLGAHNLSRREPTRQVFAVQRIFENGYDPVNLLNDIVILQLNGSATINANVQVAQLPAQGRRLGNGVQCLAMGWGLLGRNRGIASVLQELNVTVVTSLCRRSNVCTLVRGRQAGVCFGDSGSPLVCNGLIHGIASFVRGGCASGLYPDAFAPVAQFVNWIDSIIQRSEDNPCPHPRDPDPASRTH
# [1] = biological target: T2, Neutrophil elastase (Homo sapiens) (UniProt P08246); assay: The compound was evaluated in vitro for the inhibition of human leukocyte elastase(HLE); Not Active
# T2 sequence (whole entry): T1 sequence (P08246 whole entry)
# [2] = biological target: T3, Chymotrypsin-like elastase family member 2A (Sus scrofa) (UniProt P08419); assay: The compound was evaluated in vitro for the inhibition of Pancreatic elastase (PPE); Not Active
# T3 sequence (whole entry): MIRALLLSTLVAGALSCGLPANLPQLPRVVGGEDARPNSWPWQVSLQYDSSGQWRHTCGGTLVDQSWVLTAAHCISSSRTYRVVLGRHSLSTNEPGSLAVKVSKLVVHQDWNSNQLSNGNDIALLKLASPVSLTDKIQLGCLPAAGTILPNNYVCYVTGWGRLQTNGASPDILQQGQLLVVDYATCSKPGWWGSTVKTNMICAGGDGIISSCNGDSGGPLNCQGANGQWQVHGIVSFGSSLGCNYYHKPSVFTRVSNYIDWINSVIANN
Compound,IC50 (Neutrophil elastase) [µM],Activity [1],Activity [2]
O=c1oc(Cl)c(Cl)c2ccccc12,0.1,,
CCCC[C@@H]1C(=O)N(C(C)=O)[C@@H]1C(C)=O,45,,
CO[C@@H]1C(=O)N[C@@H]1/C=C/c1ccccc1,,inactive,inactive
CCCC[C@@H]1C(=O)N[C@@H]1C(C)=O,,inactive,inactive
CO[C@H]1C(=O)N[C@H]1c1ccccc1,,inactive,inactive
CO[C@@H]1C(=O)N[C@@H]1OC(C)=O,,inactive,inactive
CO[C@@H]1C(=O)N[C@@H]1c1ccccc1,,inactive,inactive
CO[C@H]1C(=O)N[C@H]1/C=C/c1ccccc1,,inactive,inactive
CO[C@@H]1C(=O)N[C@@H]1C(C)=O,,inactive,inactive
CO[C@@H]1C(=O)N(C(C)=O)[C@@H]1C(C)=O,94,,

# Next, values leading:
IC50 (Neutrophil elastase) [µM],Activity [1],Activity [2],Compound
,inactive,inactive,CO[C@@H]1C(=O)N[C@@H]1/C(C)=C/c1ccccc1
1.4,,,CO[C@@H]1C(=O)N(C(C)=O)[C@@H]1/C(C)=C/c1ccccc1
18,,,CO[C@@H]1C(=O)N([C@@H](C2SCCCS2)C2OC(C)(C)OC2C2COC(C)(C)O2)[C@@H]1/C(C)=C/c1ccccc1 (stereo not given in full)
76,,,CO[C@H]1C(=O)N([C@@H](C2SCCCS2)C2OC(C)(C)OC2C2COC(C)(C)O2)[C@H]1/C=C/c1ccccc1 (stereo not given in full)
43,,,CCCC[C@@H]1C(=O)N(C(C)=O)[C@@H]1/C(C)=C/c1ccccc1
,inactive,inactive,CCCC[C@@H]1C(=O)N[C@@H]1/C(C)=C/c1ccccc1 (stereo in doubt; 10)
11,,,CCCC[C@@H]1C(=O)N([C@@H](C2SCCCS2)C2OC(C)(C)OC2C2COC(C)(C)O2)[C@@H]1/C(C)=C/c1ccccc1 (stereo not given in full)
,inactive,inactive,CCCC[C@@H]1C(=O)N[C@@H]1/C(C)=C/c1ccccc1 (stereo in doubt; 11)
13,,,CCCC[C@H]1C(=O)N([C@@H](C2SCCCS2)C2OC(C)(C)OC2C2COC(C)(C)O2)[C@H]1/C(C)=C/c1ccccc1 (stereo not given in full)
1.6,,,CO[C@@H]1C(=O)N(C(C)=O)[C@@H]1c1ccccc1
